The values that follow come from US11807644B2 (PMV Pharmaceuticals, Inc., priority 2020, dated 2023).

The target in the test is T1, recombinant His-tag Y220C p53 DBD protein (Homo sapiens, UniProt P04637, Y220C).
T1 construct: recombinant His-tag Y220C p53 DBD protein (amino acids #˜94-312)
Kind of test: In vitro DNA binding activity assay (TR-FRET): binding of His-tag Y220C p53 DBD to biotin-labeled consensus DNA. It counts as biochemical. The conditions noted are these: for Y220C SC150 (μM): SC150 = concentration to increase DNA binding by […], His-tag Y220C p53 DBD, biotin-labeled consensus DNA; for SC150 (μM): concentration to increase DNA binding by […], incubated at either 27° C. or 29° C. for 60 min.

In the case of `CC1(n2ccc(C(=O)NCc3nc(-c4cc5c(N[C@H]6CNCC[C@H]6F)cccc5n4CC(F)(F)F)no3)c2)CCOCC1` [Compound 421B, N-{[3-(4-{[(3S,4R)-4-fluoropiperidin-3-yl]amino}-1-(2,2,2-trifluoroethyl)-1H-indol-2-yl)-1,2,4-oxadiazol-5-yl]methyl}-1-(4-methyloxan-4-yl)-1H-pyrrole-3-carboxamide], the “Y220C SC150 (μM)” value is reported as “* (* = 0 μM ≤ SC150 < 0.1 μM)”.

Turning to `CN1CCC(Nc2cccc3c2cc(-c2nc(CNC(=O)c4cccs4)no2)n3CC(F)(F)F)CC1` [Compound 139B, N-[(5-{4-[(1-methylpiperidin-4-yl)amino]-1-(2,2,2-trifluoroethyl)-1H-indol-2-yl}-1,2,4-oxadiazol-3-yl)methyl]thiophene-2-carboxamide], the “Y220C SC150 (μM)” value was “** (** = 0.1 μM ≤ SC150 < 0.5 μM)”.

Turning to `COCC1(c2ccc(C(=O)NCc3nc(-c4cc5c(N[C@@H]6CCNC[C@@H]6F)cccc5n4CC(F)(F)F)no3)s2)CC1` [Compound 503B, N-{[3-(4-{[(3S,4R)-3-fluoropiperidin-4-yl]amino}-1-(2,2,2-trifluoroethyl)-1H-indol-2-yl)-1,2,4-oxadiazol-5-yl]methyl)-5-[1-(methoxymethyl)cyclopropyl]thiophene-2-carboxamide], the “Y220C SC150 (μM)” value was “* (* = 0 μM ≤ SC150 < 0.1 μM)”.

Regarding `CN1CC[C@H](Nc2cccc3c2cc(-c2noc(CNC(=O)c4ccsc4)n2)n3CC(F)(F)F)[C@H](F)C1` [Compound 190B, N-{[3-(4-{[(3R,4S)-3-fluoro-1-methylpiperidin-4-yl]amino}-1-(2,2,2-trifluoroethyl)-1H-indol-2-yl)-1,2,4-oxadiazol-5-yl]methyl}thiophene-3-carboxamide], the “Y220C SC150 (μM)” value is reported as “* (* = 0 μM ≤ SC150 < 0.1 μM)”.

Take `CN1CC[C@@H](Nc2cccc3c2cc(-c2noc(CNC(=O)[C@@H]4C[C@H]4c4cnn(C)c4)n2)n3CC(F)(F)F)[C@@H](F)C1` [Compound 225B, (1R,2R)-N-{[3-(4-{[(3S,4R)-3-fluoro-1-methylpiperidin-4-yl]amino}-1-(2,2,2-trifluoroethyl)-1H-indol-2-yl)-1,2,4-oxadiazol-5-yl]methyl}-2-(1-methyl-1H-pyrazol-4-yl)cyclopropane-1-carboxamide]: the “Y220C SC150 (μM)” value is listed as “* (* = 0 μM ≤ SC150 < 0.1 μM)”.

With `Cn1cc(C(=O)NCc2nc(-c3cc4c(N[C@@H]5CCN(C(C)(C)C)C[C@@H]5F)cccc4n3CC(F)(F)F)no2)cn1` [Compound 405B, N-{[3-(4-{[(3S,4R)-1-tert-butyl-3-fluoropiperidin-4-yl]amino}-1-(2,2,2-trifluoroethyl)-1H-indol-2-yl)-1,2,4-oxadiazol-5-yl]methyl}-1-methyl-1H-pyrazole-4-carboxamide], the “Y220C SC150 (μM)” value was “* (* = 0 μM ≤ SC150 < 0.1 μM)”.

On to `CN1CC[C@@H](Nc2cccc3c2cc(-c2noc(CNC(=O)c4csc(N5CC6(COC6)C5)n4)n2)n3CC(F)(F)F)[C@@H](F)C1` [Compound 527B, N-{[3-(4-{[(3S,4R)-3-fluoro-1-methylpiperidin-4-yl]amino}-1-(2,2,2-trifluoroethyl)-1H-indol-2-yl)-1,2,4-oxadiazol-5-yl]methyl}-2-{2-oxa-6-azaspiro[3.3]heptan-6-yl}-1,3-thiazole-4-carboxamide], for which the “Y220C SC150 (μM)” value is “* (* = 0 μM ≤ SC150 < 0.1 μM)”.

Regarding `CC[C@@H]1C[C@H]1C(=O)NCc1nc(-c2cc3c(N[C@@H]4CCN(C)C[C@@H]4F)cccc3n2CC(F)(F)F)no1` [Compound 269B, (1R,2R)-2-ethyl-N-{[3-(4-{[(3S,4R)-3-fluoro-1-methylpiperidin-4-yl]amino}-1-(2,2,2-trifluoroethyl)-1H-indol-2-yl)-1,2,4-oxadiazol-5-yl]methyl}cyclopropane-1-carboxamide], the “Y220C SC150 (μM)” value was “* (* = 0 μM ≤ SC150 < 0.1 μM)”.

With `NC(=O)c1ccc(-c2cc3c(NC4CCS(=O)(=O)CC4)cccc3n2CC(F)(F)F)cc1` [Compound 1A, 4-{4-[(1,1-dioxo-1λ^6-thian-4-yl)amino]-1-(2,2,2-trifluoroethyl)-1H-indol-2-yl}benzamide], the “SC150 (μM)” value was “++++ (++++ = 10 μM ≤ SC150 < 35 μM)”.

In the case of `CCN1CC[C@@H](Nc2cccc3c2cc(-c2noc(CNC(=O)c4cnn(C5CCOC5)c4)n2)n3CC(F)(F)F)[C@@H](F)C1` (stereo partly drawn) [Compound 314B, N-{[3-(4-{[(3S,4R)-1-ethyl-3-fluoropiperidin-4-yl]amino}-1-(2,2,2-trifluoroethyl)-1H-indol-2-yl)-1,2,4-oxadiazol-5-yl]methyl}-1-(oxolan-3-yl)-1H-pyrazole-4-carboxamide], the “Y220C SC150 (μM)” value is reported as “* (* = 0 μM ≤ SC150 < 0.1 μM)”.

Take `CS(=O)(=O)c1ccc(NCc2ccc(-c3cc4c(NC5CCS(=O)(=O)CC5)cccc4n3CC(F)(F)F)cc2)cn1` [Compound 29A, 4-{[2-(4-{[(6-methanesulfonylpyridin-3-yl)amino]methyl}phenyl)-1-(2,2,2-trifluoroethyl)-1H-indol-4-yl]amino}-1λ^6-thiane-1,1-dione]: the “SC150 (μM)” value is reported as “+ (+ = 0 μM ≤ SC150 < 2 μM)”.

On to `CN1CC[C@@H](Nc2cccc3c2cc(-c2noc(CNC(=O)c4cccnc4)n2)n3CC(F)(F)F)[C@@H](F)C1` [Compound 202B, N-{[3-(4-{[(3S,4R)-3-fluoro-1-methylpiperidin-4-yl]amino}-1-(2,2,2-trifluoroethyl)-1H-indol-2-yl)-1,2,4-oxadiazol-5-yl]methyl}pyridine-3-carboxamide], for which the “Y220C SC150 (μM)” value is reported as “* (* = 0 μM ≤ SC150 < 0.1 μM)”.

With `Cn1ccc(C(=O)NCc2nc(-c3cc4c(N[C@@H]5CCN(C(C)(C)C)C[C@H]5F)cccc4n3CC(F)(F)F)no2)c1` (racemic) [Compound 399B, N-{[3-(4-{[(3R,4R)-1-tert-butyl-3-fluoropiperidin-4-yl]amino}-1-(2,2,2-trifluoroethyl)-1H-indol-2-yl)-1,2,4-oxadiazol-5-yl]methyl}-1-methyl-1H-pyrrole-3-carboxamide], the “Y220C SC150 (μM)” value was “* (* = 0 μM ≤ SC150 < 0.1 μM)”.

Turning to `CCN1CC[C@@H](Nc2cccc3c2cc(-c2noc(CNC(=O)c4ccn(CC(=O)N(C)C)c4)n2)n3CC(F)(F)F)[C@@H](F)C1` [Compound 365B, 1-[(dimethylcarbamoyl)methyl]-N-{[3-(4-{[(3S,4R)-1-ethyl-3-fluoropiperidin-4-yl]amino}-1-(2,2,2-trifluoroethyl)-1H-indol-2-yl)-1,2,4-oxadiazol-5-yl]methyl}-1H-pyrrole-3-carboxamide], the “Y220C SC150 (μM)” value is listed as “* (* = 0 μM ≤ SC150 < 0.1 μM)”.

As to `CN1CCC(Nc2cccc3c2cc(-c2nnc(CNC(=O)c4ccc5[nH]ncc5c4)s2)n3CC(F)(F)F)CC1` [Compound 55B, N-[(5-{4-[(1-methylpiperidin-4-yl)amino]-1-(2,2,2-trifluoroethyl)-1H-indol-2-yl}-1,3,4-thiadiazol-2-yl)methyl]-1H-indazole-5-carboxamide], the “Y220C SC150 (μM)” value is on record as “** (** = 0.1 μM ≤ SC150 < 0.5 μM)”.

For `COCC(C)n1ccc(C(=O)NCc2nc(-c3cc4c(N[C@@H]5CCN(C(C)(C)C)C[C@H]5F)cccc4n3CC(F)(F)F)no2)c1` (mixture of isomers) [Compound 358B, rac-N-{[3-(4-{1[(3R,4R)-1-tert-butyl-3-fluoropiperidin-4-yl]amino}-1-(2,2,2-trifluoroethyl)-1H-indol-2-yl)-1,2,4-oxadiazol-5-yl]methyl}-1-(1-methoxypropan-2-yl)-1H-pyrrole-3-carboxamide], the “Y220C SC150 (μM)” value was “* (* = 0 μM ≤ SC150 < 0.1 μM)”.

In the case of `CC(C)(C#N)c1ccc(NC(=O)NCc2ccc(-c3cc4c(NC5CCS(=O)(=O)CC5)cccc4n3CC(F)(F)F)cc2)cn1` [Compound 18A, 3-[6-(1-cyano-1-methylethyl)pyridin-3-yl]-1-[(4-{4-[(1,1-dioxo-1λ^6-thian-4-yl)amino]-1-(2,2,2-trifluoroethyl)-1H-indol-2-yl}phenyl)methyl]urea], the “SC150 (μM)” value is “+ (+ = 0 μM ≤ SC150 < 2 μM)”.

As to `CN(C)C[C@@H]1C[C@H]1C(=O)NCc1nc(-c2cc3c(N[C@@H]4CCN(C)C[C@@H]4F)cccc3n2CC(F)(F)F)no1` [Compound 264B, (1R,2R)-2-[(dimethylamino)methyl]-N-{[3-(4-{[(3S,4R)-3-fluoro-1-methylpiperidin-4-yl]amino}-1-(2,2,2-trifluoroethyl)-1H-indol-2-yl)-1,2,4-oxadiazol-5-yl]methyl}cyclopropane-1-carboxamide], the “Y220C SC150 (μM)” value is “* (* = 0 μM ≤ SC150 < 0.1 μM)”.

As to `CN1CCC(Nc2cccc3c2cc(-c2noc(CNC(=O)[C@@H]4C[C@H]4c4ccccc4)n2)n3CC(F)(F)F)CC1` (racemic) [Compound 156B, (+/−)-(1R,2R)—N-[(3-{4-[(1-methylpiperidin-4-yl)amino]-1-(2,2,2-trifluoroethyl)-1H-indol-2-yl}-1,2,4-oxadiazol-5-yl)methyl]-2-phenylcyclopropane-1-carboxamide], the “Y220C SC150 (μM)” value was “* (* = 0 μM ≤ SC150 < 0.1 μM)”.

For the compound `CN1CC[C@@H](Nc2cccc3c2cc(-c2noc(CNC(=O)c4ccn([C@H]5CC[C@](C)(O)C5)c4)n2)n3CC(F)(F)F)[C@@H](F)C1` (stereo in doubt) [Compound 373B, Trans-N-{[3-(4-{[(3S,4R)-3-fluoro-1-methylpiperidin-4-yl]amino}-1-(2,2,2-trifluoroethyl)-1H-indol-2-yl)-1,2,4-oxadiazol-5-yl]methyl}-1-[(1R,3R)-3-hydroxy-3-methylcyclopentyl]-1H-pyrrole-3-carboxamide], the “Y220C SC150 (μM)” value is “* (* = 0 μM ≤ SC150 < 0.1 μM)”.

In the case of `CC(C)N1CC[C@@H](Nc2cccc3c2cc(-c2noc(CNC(=O)c4cn(C(C)(C)C)cn4)n2)n3CC(F)(F)F)[C@@H](F)C1` [Compound 318B, 1-tert-butyl-N-{[3-(4-{[(3S,4R)-3-fluoro-1-(propan-2-yl)piperidin-4-yl]amino}-1-(2,2,2-trifluoroethyl)-1H-indol-2-yl)-1,2,4-oxadiazol-5-yl]methyl}-1H-imidazole-4-carboxamide], the “Y220C SC150 (μM)” value is reported as “* (* = 0 μM ≤ SC150 < 0.1 μM)”.

Regarding `COCC(O)CN1CCC(Nc2cccc3c2cc(-c2ccc4c(c2)NC(=O)C4)n3CC(F)(F)F)CC1` (stereo not shown) [Compound 49A, 4-{[1-(2-hydroxy-3-methoxypropyl)piperidin-4-yl]amino}-1-(2,2,2-trifluoroethyl)-2′,3′-dihydro-1H,1′H-[2,6′-biindol]-2′-one], the “SC150 (μM)” value is reported as “++ (++ = 2 μM ≤ SC150 < 5 μM)”.
